The first test deals with T1, m-Calpain (Rattus norvegicus, UniProt Q07009).
T1 construct: m-Calpain was purified from brains of rats; from tissue; host or cells: rat brain
T1 sequence (Q07009 20-700 limits assumed): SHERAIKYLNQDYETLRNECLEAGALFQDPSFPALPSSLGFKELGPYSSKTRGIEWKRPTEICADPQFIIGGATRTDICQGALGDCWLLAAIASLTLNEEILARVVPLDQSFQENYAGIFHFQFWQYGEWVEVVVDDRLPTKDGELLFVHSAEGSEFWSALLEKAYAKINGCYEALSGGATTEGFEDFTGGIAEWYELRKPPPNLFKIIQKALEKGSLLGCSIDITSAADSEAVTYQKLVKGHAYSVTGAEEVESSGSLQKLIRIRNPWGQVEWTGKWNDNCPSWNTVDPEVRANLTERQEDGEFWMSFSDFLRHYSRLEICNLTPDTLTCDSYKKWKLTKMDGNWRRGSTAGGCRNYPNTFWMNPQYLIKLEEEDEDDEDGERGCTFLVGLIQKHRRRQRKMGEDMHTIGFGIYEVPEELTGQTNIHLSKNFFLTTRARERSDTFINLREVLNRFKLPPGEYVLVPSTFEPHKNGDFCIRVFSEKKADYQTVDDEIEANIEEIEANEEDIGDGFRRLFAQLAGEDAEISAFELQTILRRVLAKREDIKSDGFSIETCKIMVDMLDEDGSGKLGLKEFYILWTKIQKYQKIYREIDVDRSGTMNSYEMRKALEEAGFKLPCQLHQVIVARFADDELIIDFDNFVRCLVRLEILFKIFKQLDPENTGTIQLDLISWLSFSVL
T1 sequence (Q64537 1-270 partner): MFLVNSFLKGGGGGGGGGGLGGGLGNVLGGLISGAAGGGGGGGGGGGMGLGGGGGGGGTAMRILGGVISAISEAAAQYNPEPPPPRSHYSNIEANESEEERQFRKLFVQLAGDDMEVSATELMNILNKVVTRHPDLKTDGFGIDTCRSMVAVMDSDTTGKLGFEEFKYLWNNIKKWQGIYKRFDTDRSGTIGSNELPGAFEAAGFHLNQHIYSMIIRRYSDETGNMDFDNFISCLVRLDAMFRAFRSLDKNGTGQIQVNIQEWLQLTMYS
In words: Inhibitory activity against calpain (m-Calpain purified from brains of rats). It counts as biochemical. The note with it: Inhibitory activity against calpain (Table-6). Here is the method:
m-Calpain was purified from brains of rats according to a method described in a literature (Journal of Biological Chemistry, Vol. 259, p. 3210, 1984), and the inhibitory activity was determined in a manner according to a published method (Journal of Biological Chemistry, Vol. 259, p. 12489, 1984).
One may read the IC50 as the concentration that inhibits the measured activity by half. Take `COC(=O)N[C@@H](CC(C)C)C(=O)NC1CCOC1O` (stereo partly drawn) [Example 9, 3-((S)-2-methoxycarbonylamino-4-methylvalerylamino)-2-tetrahydrofuranol]: 1550 nM corresponded to half-maximal inhibition (IC50).
Consider `CC(C)C[C@H](NC(=O)OCC1c2ccccc2-c2ccccc21)C(=O)N[C@H]1CCOC1O` (stereo partly drawn) [Example 22, (3S)-3-{(S)-2-(9-fluorenylmethoxycarbonylamino)-4-methylvalerylamino}-2-tetrahydrofuranol], for which half-maximal inhibition (IC50) required 410 nM.
Still for that read-out and setting: the result for `CC(C)C[C@H](NC(=O)OCC1CCCO1)C(=O)N[C@H]1CCOC1O` (stereo partly drawn) [Example 23, (3S)-3-((S)-4-methyl-2-tetrahydrofurfuryloxycarbonylaminovalerylamino)-2-tetrahydrofuranol] reads 1100 nM.
As for `CC(C)C[C@H](NC(=O)OCc1cccc[n+]1[O-])C(=O)NC1CCOC1O` (stereo partly drawn) [Example 26, 3-{(S)-4-methyl-2-(2-pyridylmethoxycarbonylamino)valerylamino)-2-tetrahydrofuranol N-oxide], the IC50 came out at 1400 nM.
The same measure, in the same setting: for `Cc1cccc(C)c1C(=O)N[C@@H](CC(C)C)C(=O)N[C@H]1CCOC1O` (stereo partly drawn) [Example 47, (3S)-3-{(S)-2-(2,6-dimethylbenzoylamino)-4-methylvalerylamino)-2-tetrahydrofuranol] the value was 2300 nM.
On the same count and under the same terms, for `Cc1cc(C)c(C(=O)N[C@@H](CC(C)C)C(=O)N[C@H]2CCOC2O)c(C)c1` (stereo partly drawn) [Example 49, (3S)-3-{(S)-4-methyl-2-(2,4,6-trimethylbenzoylamino)valerylamino}-2-tetrahydrofuranol] the value was 680 nM; for `COc1ccccc1C(=O)N[C@@H](CC(C)C)C(=O)N[C@H]1CCOC1O` (stereo partly drawn) [Example 52, (3S)-3-{(S)-2-(2-methoxybenzoylamino)-4-methylvalerylamino)-2-tetrahydrofuranol], 340 nM; for `COc1ccc(C(=O)N[C@@H](CC(C)C)C(=O)N[C@H]2CCOC2O)c(OC)c1` (stereo partly drawn) [Example 54, (3S)-3-{(S)-2-(2,4-dimethoxybenzoylamino)-4-methylvalerylamino}-2-tetrahydrofuranol], 700 nM.

Still in this test, the particulars now being: Inhibitory activity against calpain (continuation of Table-6).
Consider `CC(C)C[C@H](NC(=O)C1CCc2ccccc2O1)C(=O)N[C@H]1CCOC1O` (stereo partly shown) [Example 63], for which the IC50 is 350 nM.
Consider `CC(C)C[C@H](NS(=O)(=O)c1ccc(F)cc1)C(=O)N[C@H]1CCOC1O` (stereo partly drawn) [Example 66, (3S)-3-{(S)-2-(4-fluorophenylsulfonylamino)-4-methylvalerylamino}-2-tetrahydrofuranol], for which the IC50 turned out to be 600 nM.
Consider `CC(C)C[C@H](NS(=O)(=O)c1ccc(Cl)cc1)C(=O)N[C@H]1CCOC1O` (stereo partly drawn) [Example 68, (3S)-3-{(S)-2-(4-chlorophenylsulfonylamino)-4-methylvalerylamino}-2-tetrahydrofuranol], for which the IC50 came to 560 nM. This IC50 and that of the molecule before are within 1.5-fold of each other.
In turn, `CC(C)C[C@H](NS(=O)(=O)c1ccc(Br)cc1)C(=O)N[C@H]1CCOC1O` (stereo partly drawn) [Example 69, (3S)-3-{(S)-2-(4-bromophenylsulfonylamino)-4-methylvalerylamino}-2-tetrahydrofuranol] gave an IC50 of 620 nM.
Same read-out and setting: for `Cc1ccc(S(=O)(=O)N[C@@H](CC(C)C)C(=O)N[C@H]2CCOC2O)cc1` (stereo partly drawn) [Example 70, (3S)-3-{(S)-4-methyl-2-(4-methylphenylsulfonylamino)valerylamino}-2-tetrahydrofuranol] the value was 500 nM.
On the same count and under the same terms, for `Cc1cc(C)c(S(=O)(=O)N[C@@H](CC(C)C)C(=O)N[C@H]2CCOC2O)c(C)c1` (stereo partly drawn) [Example 71, (3S)-3-{(S)-4-methyl-2-(2,4,6-trimethylphenylsulfonylamino)valerylamino}-2-tetrahydrofuranol] the value was 450 nM; for `CC(C)C[C@H](NS(=O)(=O)c1ccc(C(C)(C)C)cc1)C(=O)N[C@H]1CCOC1O` (stereo partly drawn) [Example 72, (3S)-3-{(S)-2-(4-tert-butylphenylsulfonylamino)-4-methylvalerylamino}-2-tetrahydrofuranol], 390 nM.
`COc1ccc(S(=O)(=O)N[C@@H](CC(C)C)C(=O)N[C@H]2CCOC2O)cc1` (stereo partly drawn) [Example 73, (3S)-3-{(S)-2-(4-methoxyphenylsulfonylamino)-4-methylvalerylamino}-2-tetrahydrofuranol] came in with an IC50 of 740 nM.

Values taken from patent EP0810221A1 (MITSUBISHI CHEMICAL CORPORATION, priority 1995, dated 1996).
